Measurements taken from PubChem BioAssay (NCI).
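Here, GI50 denotes the concentration required for 50% inhibition of growth. TGI: total growth inhibition.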

What was measured:
Assay in all cases: NCI anticancer screen, dose series, 384-well format
SF-295 CNS = system: SF-295 CNS
UACC-257 melanoma = system: UACC-257 melanoma
HS 578T breast = system: HS 578T breast
K-562 leukemia = system: K-562 leukemia
U251 glioblastoma = system: U251 glioblastoma
MOLT-4 leukemia = system: MOLT-4 leukemia
MDA-MB-468 breast = system: MDA-MB-468 breast
HL-60(TB) leukemia = system: HL-60(TB) leukemia
PC-3 prostate = system: PC-3 prostate
SR leukemia = system: SR leukemia
MCF7 breast = system: MCF7 breast
NCI-H460 NSCLC = system: NCI-H460 NSCLC
M14 melanoma = system: M14 melanoma
SNB-75 CNS = system: SNB-75 CNS
RPMI-8226 leukemia = system: RPMI-8226 leukemia
MDA-MB-231 breast = system: MDA-MB-231 breast
T-47D breast = system: T-47D breast
IGROV1 ovarian = system: IGROV1 ovarian
UO-31 renal = system: UO-31 renal
NCI-H522 lung = system: NCI-H522 lung
ACHN renal = system: ACHN renal
CCRF-CEM leukemia = system: CCRF-CEM leukemia
HCT-15 colon = system: HCT-15 colon
NCI/ADR-RES ovarian = system: NCI/ADR-RES ovarian
LOX IMVI melanoma = system: LOX IMVI melanoma
KM12 colon = system: KM12 colon
DU-145 prostate = system: DU-145 prostate
SW-620 colon = system: SW-620 colon
SK-MEL-2 melanoma = system: SK-MEL-2 melanoma
SNB-19 CNS = system: SNB-19 CNS
NCI-H226 lung = system: NCI-H226 lung
HOP-92 NSCLC = system: HOP-92 NSCLC
HCC-2998 colon = system: HCC-2998 colon
COLO 205 colon = system: COLO 205 colon
SF-268 CNS = system: SF-268 CNS
RXF 393 renal = system: RXF 393 renal
OVCAR-4 ovarian = system: OVCAR-4 ovarian
BT-549 breast = system: BT-549 breast
NCI-H322M lung = system: NCI-H322M lung
CAKI-1 renal = system: CAKI-1 renal
OVCAR-3 ovarian = system: OVCAR-3 ovarian
MDA-MB-435 melanoma = system: MDA-MB-435 melanoma
OVCAR-5 ovarian = system: OVCAR-5 ovarian
SN12C renal = system: SN12C renal
HT29 colon = system: HT29 colon
A498 renal = system: A498 renal
SK-MEL-5 melanoma = system: SK-MEL-5 melanoma
A549 NSCLC = system: A549 NSCLC
TK-10 renal = system: TK-10 renal
HOP-62 NSCLC = system: HOP-62 NSCLC
786-0 renal = system: 786-0 renal
SK-OV-3 ovarian = system: SK-OV-3 ovarian
EKVX NSCLC = system: EKVX NSCLC
SK-MEL-28 melanoma = system: SK-MEL-28 melanoma
UACC-62 melanoma = system: UACC-62 melanoma
MALME-3M melanoma = system: MALME-3M melanoma
SF-539 CNS = system: SF-539 CNS
NCI-H23 lung = system: NCI-H23 lung
HCT-116 colon = system: HCT-116 colon
OVCAR-8 ovarian = system: OVCAR-8 ovarian

## Cc1ccc(NS(=O)(=O)c2cccc(C#N)c2)c2[nH]cc(C#N)c12
SF-295 CNS
  GI50: 7.23 µM
  TGI: 42.1 µM
UACC-257 melanoma
  GI50: 48.6 µM
  TGI: > 100 µM
HS 578T breast
  GI50: 16.2 µM
  TGI: 65.6 µM
K-562 leukemia
  GI50: 0.525 µM
  TGI: > 100 µM
U251 glioblastoma
  GI50: 16.9 µM
  TGI: > 100 µM
MOLT-4 leukemia
  GI50: 0.66 µM
  TGI: 13.6 µM
MDA-MB-468 breast
  GI50: 0.165 µM
  TGI: 0.629 µM
HL-60(TB) leukemia
  GI50: 12 µM
  TGI: 26 µM
PC-3 prostate
  GI50: 1.44 µM
  TGI: > 100 µM
SR leukemia
  GI50: 0.155 µM
  TGI: 0.799 µM
MCF7 breast
  GI50: 11 µM
  TGI: > 100 µM
NCI-H460 NSCLC
  GI50: 17.6 µM
  TGI: > 100 µM
M14 melanoma
  GI50: 26.5 µM
  TGI: > 100 µM
SNB-75 CNS
  GI50: 29.9 µM
  TGI: > 100 µM
RPMI-8226 leukemia
  GI50: 14.5 µM
  TGI: 47.7 µM
MDA-MB-231 breast
  GI50: 14.7 µM
  TGI: > 100 µM
T-47D breast
  GI50: 23.1 µM
  TGI: 79.2 µM
IGROV1 ovarian
  GI50: 0.247 µM
  TGI: > 100 µM
UO-31 renal
  GI50: 17.8 µM
  TGI: 53.9 µM
NCI-H522 lung
  GI50: 0.292 µM
  TGI: 15.3 µM
ACHN renal
  GI50: 10.4 µM
  TGI: > 100 µM
CCRF-CEM leukemia
  GI50: 15.1 µM
  TGI: 43.3 µM
HCT-15 colon
  GI50: 10.3 µM
  TGI: > 100 µM
NCI/ADR-RES ovarian
  GI50: 1.24 µM
  TGI: > 100 µM
LOX IMVI melanoma
  GI50: 32.1 µM
  TGI: > 100 µM
KM12 colon
  GI50: 27.1 µM
  TGI: > 100 µM
DU-145 prostate
  GI50: 4.29 µM
  TGI: > 100 µM
SW-620 colon
  GI50: 14.7 µM
  TGI: > 100 µM
SK-MEL-2 melanoma
  GI50: 33.3 µM
  TGI: 60 µM
SNB-19 CNS
  GI50: 20.2 µM
  TGI: > 100 µM
NCI-H226 lung
  GI50: 12.4 µM
  TGI: 70.6 µM
HOP-92 NSCLC
  GI50: 19.9 µM
  TGI: 54.6 µM
HCC-2998 colon
  GI50: 24 µM
  TGI: > 100 µM
COLO 205 colon
  GI50: 10.5 µM
  TGI: > 100 µM
SF-268 CNS
  GI50: 37.4 µM
  TGI: > 100 µM
RXF 393 renal
  GI50: 15.6 µM
  TGI: 52.7 µM
OVCAR-4 ovarian
  GI50: 18.2 µM
  TGI: > 100 µM
BT-549 breast
  GI50: 24.9 µM
  TGI: 57.6 µM
NCI-H322M lung
  GI50: 39.4 µM
  TGI: > 100 µM
CAKI-1 renal
  GI50: 18 µM
  TGI: > 100 µM
OVCAR-3 ovarian
  GI50: 22.2 µM
  TGI: 87.6 µM
MDA-MB-435 melanoma
  GI50: 10.6 µM
  TGI: 44.5 µM
OVCAR-5 ovarian
  GI50: 31.1 µM
  TGI: > 100 µM
SN12C renal
  GI50: 27.7 µM
  TGI: > 100 µM
HT29 colon
  GI50: 47.2 µM
  TGI: > 100 µM
A498 renal
  GI50: 19.7 µM
  TGI: > 100 µM
SK-MEL-5 melanoma
  GI50: 15.7 µM
  TGI: 38 µM
A549 NSCLC
  GI50: 15.1 µM
  TGI: > 100 µM
TK-10 renal
  GI50: 5.02 µM
  TGI: > 100 µM
HOP-62 NSCLC
  GI50: 12.2 µM
  TGI: > 100 µM
786-0 renal
  GI50: 11.7 µM
  TGI: > 100 µM
SK-OV-3 ovarian
  GI50: 6.53 µM
  TGI: > 100 µM
EKVX NSCLC
  GI50: 28.7 µM
  TGI: 83.9 µM
SK-MEL-28 melanoma
  GI50: 32.9 µM
  TGI: 95.9 µM
UACC-62 melanoma
  GI50: 0.777 µM
  TGI: 28 µM
MALME-3M melanoma
  GI50: 61.7 µM
  TGI: > 100 µM
SF-539 CNS
  GI50: 37.5 µM
  TGI: > 100 µM
NCI-H23 lung
  GI50: 20 µM
  TGI: 43.9 µM
HCT-116 colon
  GI50: 0.246 µM
  TGI: > 100 µM

## CC1=C(/C=C/C(C)=C/C=C/C(C)=C/C(=O)O)C(C)(C)CCC1
UACC-257 melanoma
  GI50: 33.4 µM
  TGI: > 100 µM
HS 578T breast
  GI50: 16.4 µM
  TGI: 40 µM
K-562 leukemia
  GI50: 21.5 µM
  TGI: 41.3 µM
U251 glioblastoma
  GI50: > 100 µM
  TGI: > 100 µM
MOLT-4 leukemia
  GI50: 14.6 µM
  TGI: 27.9 µM
MDA-MB-468 breast
  GI50: 25.4 µM
  TGI: 48.4 µM
HL-60(TB) leukemia
  GI50: 0.0259 µM
  TGI: 16.9 µM
PC-3 prostate
  GI50: 19.8 µM
  TGI: 39.7 µM
MCF7 breast
  GI50: 18 µM
  TGI: > 100 µM
M14 melanoma
  GI50: 19.4 µM
  TGI: 38 µM
SNB-75 CNS
  GI50: 31.5 µM
  TGI: 79.2 µM
RPMI-8226 leukemia
  GI50: 0.293 µM
  TGI: 11.3 µM
MDA-MB-231 breast
  GI50: 25.4 µM
  TGI: 72.2 µM
IGROV1 ovarian
  GI50: > 100 µM
  TGI: > 100 µM
UO-31 renal
  GI50: 86 µM
  TGI: > 100 µM
NCI-H522 lung
  GI50: 24.1 µM
  TGI: 51.5 µM
ACHN renal
  GI50: 52.2 µM
  TGI: > 100 µM
CCRF-CEM leukemia
  GI50: 20.1 µM
  TGI: 34.5 µM
HCT-15 colon
  GI50: 22.7 µM
  TGI: 52.6 µM
NCI/ADR-RES ovarian
  GI50: > 100 µM
  TGI: > 100 µM
KM12 colon
  GI50: 38 µM
  TGI: > 100 µM
DU-145 prostate
  GI50: 45.7 µM
  TGI: > 100 µM
SW-620 colon
  GI50: 47.3 µM
  TGI: > 100 µM
OVCAR-8 ovarian
  GI50: 24.1 µM
  TGI: 58.3 µM
SK-MEL-2 melanoma
  GI50: 27.7 µM
  TGI: 49.7 µM
SNB-19 CNS
  GI50: 30.1 µM
  TGI: > 100 µM
NCI-H226 lung
  GI50: 33.2 µM
  TGI: > 100 µM
HOP-92 NSCLC
  GI50: 38.9 µM
  TGI: > 100 µM
SF-268 CNS
  GI50: 22.9 µM
  TGI: 49.1 µM
RXF 393 renal
  GI50: 24.3 µM
  TGI: 57.5 µM
OVCAR-4 ovarian
  GI50: 46 µM
  TGI: > 100 µM
BT-549 breast
  GI50: 20.3 µM
  TGI: 36.5 µM
CAKI-1 renal
  GI50: 38.6 µM
  TGI: > 100 µM
OVCAR-3 ovarian
  GI50: 19.6 µM
  TGI: 34.9 µM
MDA-MB-435 melanoma
  GI50: 55.6 µM
  TGI: > 100 µM
OVCAR-5 ovarian
  GI50: 37.2 µM
  TGI: > 100 µM
SN12C renal
  GI50: 25.9 µM
  TGI: 89.1 µM
HT29 colon
  GI50: 21.6 µM
  TGI: 46 µM
HOP-62 NSCLC
  GI50: > 100 µM
  TGI: > 100 µM
786-0 renal
  GI50: 29.7 µM
  TGI: 75.9 µM
EKVX NSCLC
  GI50: > 100 µM
  TGI: > 100 µM
SK-MEL-28 melanoma
  GI50: 47.1 µM
  TGI: > 100 µM
UACC-62 melanoma
  GI50: 19.2 µM
  TGI: 40.2 µM
MALME-3M melanoma
  GI50: 0.95 µM
SF-539 CNS
  GI50: 12 µM
  TGI: 24.9 µM
HCT-116 colon
  GI50: 20.6 µM
  TGI: 39 µM
